From US6872702B1, “Inhibitors for urokinase receptor” (Wilex AG, priority 1997, dated 2005)
Marks after values point to notes of the source that are not given here. Positions of bridges follow the written chain, without caps; N, C: chain ends. Residues, ends and D or L forms follow the SMILES beside them. No end group written: not given here.

Key:
[1] = target: T1, cell surface-associated uPAR (Homo sapiens, UniProt Q03405); assay: Flow cytometry: inhibition of binding of FITC-conjugated pro-uPA to cell surface-associated uPAR on PMA-stimulated U937 cells
T1 construct: source of cellular native uPAR; endogenous in cells; host or cells: U937 cells stimulated with PMA
T1 sequence (Q03405 23-305): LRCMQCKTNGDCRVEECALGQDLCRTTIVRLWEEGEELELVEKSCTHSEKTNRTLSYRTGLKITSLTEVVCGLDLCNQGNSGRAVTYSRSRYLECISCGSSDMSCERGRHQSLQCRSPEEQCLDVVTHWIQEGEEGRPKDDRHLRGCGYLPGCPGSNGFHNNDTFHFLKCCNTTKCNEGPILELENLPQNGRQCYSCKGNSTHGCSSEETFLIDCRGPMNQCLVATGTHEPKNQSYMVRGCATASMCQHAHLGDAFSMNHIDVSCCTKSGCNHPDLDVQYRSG
Protocol: The ability of the synthetic peptides to inhibit the uPA/uPAR interaction was determined by means of flow cytometry on a FACScan flow cytometer (Becton-Dickinson, Heidelberg, Germany) using the human promyeloid cell line U937 as a source of cellular native uPAR (Chuchulowski et al., Fibrinolysis 6, Suppl. 4 (1992), 95-102; Magdolen et al., (1996), supra). The U937 cells were stimulated with […] phorbol-12-myristate-13-acetate (PMA) for 48 h. After stimulation with PMA the U937 cells expressed considerable amounts of cell surface-associated uPAR.
The stimulated cells were treated for 1 min at room temperature with 50 mM glycine HCl, 0.1 NaCl, pH 3.6 in order to dissociate endogenous receptor-bound uPA. Subsequently the acidic buffer was neutralized with 0.5 M HEPES-100 mM NaCl, pH 7.5. […] Before the analysis, propidium iodide, a fluorescent dye which specifically binds double-stranded DNA, was added to each sample in order to determine the viability of the analysed U937 cells. […]
For this the purified peptides were analysed by mass spectroscopy, quantified by amino acid analysis and then tested by flow cytometry according to the method described in 1.3 for their ability to inhibit the binding of fluorescent-labelled pro-uPA to the uPA receptor on U937 cells. […]

recombinant human uPAR = target: T2, recombinant human uPAR (Homo sapiens, UniProt Q03405); assay: Microtitre plate solid phase ATF-ligand binding test; settings: 0.6 ng ATF together with 15 μg synthetic peptide per ml; FIG. 2
T2 construct: made in house; host or cells: CHO cells
T2 sequence (Q03405 23-299 limits assumed): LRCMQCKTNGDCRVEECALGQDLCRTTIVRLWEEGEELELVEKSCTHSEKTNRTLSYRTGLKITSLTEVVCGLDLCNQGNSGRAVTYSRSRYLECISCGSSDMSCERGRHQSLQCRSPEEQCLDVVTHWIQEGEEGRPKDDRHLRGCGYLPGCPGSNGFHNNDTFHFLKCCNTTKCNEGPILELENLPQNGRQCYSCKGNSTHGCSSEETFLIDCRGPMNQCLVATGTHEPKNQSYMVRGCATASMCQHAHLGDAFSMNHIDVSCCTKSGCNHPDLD
Protocol: In addition to the flow cytometric analyses, a solid phase ATF-ligand binding test was carried out in order to examine the interactions of synthetic peptides with the uPAR. For this microtitre plates were coated with recombinant human uPAR from CHO cells (Wilhelm et al., FEBS Lett. 337 (1994), 131-134; Magdolen et al., Electrophoresis 16 (1995), 813-816) and the remaining protein-binding sites were saturated with 2% BSA (weight/vol). After incubation with the samples (0.6 ng ATF together with 15 μg synthetic peptide per ml) and several wash steps, the amount of ATF which had bound to the uPAR immobilized on the microtitre plate was determined using a biotinylated monoclonal mouse antibody against the kringle domain of ATF (No. 377, American Diagnostics, Greenwich, Conn., USA) and subsequent addition of avidin-peroxidase conjugate and 3,3′,5,5′-tetramethylbenzidine/[…] as a substrate for the peroxidase. The presence of synthetic peptides which compete with the ATF binding to uPAR reduces the conversion of the chromogenic substrate.
A series of peptides with variable sequence regions from the receptor binding region of uPA were synthesized and were increasingly shortened at the amino terminus starting with uPA10-32. The microtitre plate solid phase binding test described in 1.4 was used to determine the inhibitory capacity of these peptides.

[2] = Stability of binding activity after long storage in aqueous solution or repeated freeze/thaw cycles; format: physicochemical
[3] = tested on: human breast cancer cells MDA-MB-231; assay: Primary tumour growth of MDA-MB-231 cells injected into naked mice; format: in vivo, Balbc/3 naked mice; settings: 10 mg/kg intraperitoneally twice weekly
Protocol: 6×10^6 human breast cancer cells MDA-MB-231 (Price et al., Cancer Res. 50 (1990), 717-721) in a total volume of 300 μl were injected into the right side of 4-6 week old Balbc/3 naked mice. Before injection the cancer cells were mixed with 200 μg of the cyclic uPA peptides cyclo^19,31uPA19-31 (SEQ ID NO: 3) and Cyclo^21,29[Cys21,29]uPA21-30 (SEQ ID NO: 4) in PBS, pH 7.4. Subsequently the mice were treated twice weekly intraperitoneally with the respective peptide at a dose of 10 mg/kg body weight (injection volume 300 μl). The volume of the primary tumours which occurred in the mice in cm^3 was determined after 1, 2, 3 and 5 weeks by measuring the two largest diameters. The control mice were administered PBS pH 7.4. Each group was composed of 5 mice. The results for the peptide cyclo^19,31uPA19-31 (SEQ ID NO: 3) are shown in Tab. 2.

Compound	inhibition of the binding of ATF to uPAR / uPAR binding capacity (recombinant human uPAR)	other results
CC[C@H](C)[C@H](NC(=O)[C@H](CC(N)=O)NC(=O)[C@H](CO)NC(=O)[C@H](Cc1ccccc1)NC(=O)[C@H](Cc1ccc(O)cc1)NC(=O)[C@H](CCCCN)NC(=O)[C@H](CC(N)=O)NC(=O)[C@H](CO)NC(=O)[C@@H](NC(=O)[C@@H](N)CS)C(C)C)C(=O)N[C@@H](Cc1c[nH]cn1)C(=O)N[C@@H](Cc1c[nH]c2ccccc12)C(=O)N[C@@H](CS)C(=O)O [uPA19-31] (H-CVSNKYFSNIHWC-OH; N-terminus and C-terminus assumed)	higher affinity than the longer peptide uPA16-32	
cyclo^19-31uPA19-31: cyclic peptide uPA19-31 with an intramolecular disulfide bond between the cysteine residues at positions 19 and 31 (CVSNKYFSNIHWC; disulfide 1-13)	still able to inhibit the binding of uPA to the uPA receptor	stability of binding activity compared with linear peptide uPA19-31 [2]: significantly more stable; volume of the primary tumours ([3]; week 1): 0 cm^3; volume of the primary tumours ([3]; week 2): 0.086 ± 0.047 cm^3; volume of the primary tumours ([3]; week 3): 0.303 ± 0.129 cm^3; volume of the primary tumours ([3]; week 5, p = 0.02): 0.62 ± 0.21* cm^3
uPA10-32: linear peptide from the receptor binding region of uPA, amino acids 10-32 (NCDCLNGGTCVSNKYFSNIHWCN)	effectively inhibit	

Now from value to compound, other results behind:

inhibition of the binding of ATF to uPAR / uPAR binding capacity (recombinant human uPAR)	Compound	other results
effectively inhibit	CC[C@H](C)[C@H](NC(=O)[C@H](CC(N)=O)NC(=O)[C@H](CO)NC(=O)[C@H](Cc1ccccc1)NC(=O)[C@H](Cc1ccc(O)cc1)NC(=O)[C@H](CCCCN)NC(=O)[C@H](CC(N)=O)NC(=O)[C@H](CO)NC(=O)[C@@H](NC(=O)[C@H](CS)NC(=O)[C@@H](NC(=O)CNC(=O)CN)[C@@H](C)O)C(C)C)C(=O)N[C@@H](Cc1c[nH]cn1)C(=O)N[C@@H](Cc1c[nH]c2ccccc12)C(=O)N[C@@H](CS)C(=O)N[C@@H](CC(N)=O)C(=O)O [uPA16-32] (H-GGTCVSNKYFSNIHWCN-OH; N-terminus assumed)	fold higher affinity to uPAR compared to uPA12-32 [C19A] and clone 20 peptide [1]: 4- to 5 fold; molar excess resulting in a 50% inhibition of the binding of uPA ([1]; FITC-conjugated pro-uPA): approximately 3,000 molar excess
effectively inhibit	uPA12-31: linear peptide from the receptor binding region of uPA, amino acids 12-31 as printed (DCLNGGTCVSNKYFSNIHWC)	
effectively inhibit	uPA14-32: linear peptide from the receptor binding region of uPA, amino acids 14-32 (LNGGTCVSNKYFSNIHWCN)	
does not bind at all	uPA20-34: linear peptide from the receptor binding region of uPA, amino acids 20-34 (VSNKYFSNIHWCNCP)	
